{"source": "patent US11591341B2", "about": "(ALIGOS THERAPEUTICS, INC., priority 2019, dated 2023)", "data": [{"test_system": "HBV", "assay": "HBV-DNA Antiviral Assay Using HepG2.117 Cells (intracellular HBV DNA by qPCR)", "format": "cell-based, hepatitis B virus (genotype D)", "details": "Hepatitis B virus, HepG2.117", "procedure,_shortened": "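Endpoint: qPCR copy number of intracellular HBV DNA after 3-day compound exposure, with inhibition set relative to the 2% DMSO control. The cells were doxycycline-free HepG2.117 carrying a Tet-off genotype D genome, dosed at nine 4-fold dilutions. A duplicate plate gave ATP-based viability (CC50).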", "units": {"EC50": "nM"}, "values": [{"smiles": "O=C(NCc1ccccc1)c1c2n(c(=O)n1-c1ccc(OC3CC3)cc1)CCN(C(=O)c1cc(Cl)c(Br)cc1F)C2", "note": "[Example 446, N-benzyl-7-(4-bromo-5-chloro-2-fluoro-benzoyl)-2-[4-(cyclopropoxy)phenyl]-3-oxo-6,8-dihydro-5H-imidazo[1,5-a]pyrazine-1-carboxamide]", "EC50": "> 5000"}, {"smiles": "O=C(NCc1ccc(OC2COC2)cc1F)c1c2n(c(=O)n1-c1ccc(OC3CC3)cc1)CCN(C(=O)c1ccc(Br)c(Cl)c1)C2", "note": "[Example 363, 7-(4-bromo-3-chloro-benzoyl)-2-[4-(cyclopropoxy)phenyl]-N-[[2-fluoro-4-(oxetan-3-yloxy)phenyl]methyl]-3-oxo-6,8-dihydro-5H-imidazo[1,5-a]pyrazine-1-carboxamide]", "EC50": "100 to 500"}, {"smiles": "C[C@@H](NC(=O)c1c2n(c(=O)n1-c1ccc(OC3CCC3)cc1)CCN(C(=O)c1ccc(Br)c(Cl)c1)C2)c1ccccc1", "note": "(stereo in doubt) [Example 137, 7-(4-bromo-3-chloro-benzoyl)-2-[4-(cyclobutoxy)phenyl]-3-oxo-N-[rac-(1R)-1-phenylethyl]-6,8-dihydro-5H-imidazo[1,5-a]pyrazine-1-carboxamide]", "EC50": "100 to 500"}, {"smiles": "O=C(NCc1ccccc1-c1ncccn1)c1c2n(c(=O)n1-c1ccc(OCC(F)(F)F)cc1)CCN(C(=O)c1ccc(Br)c(Cl)c1)C2", "note": "[Example 377, 7-(4-bromo-3-chloro-benzoyl)-3-oxo-N-[(2-pyrimidin-2-ylphenyl)methyl]-2-[4-(2,2,2-trifluoroethoxy)phenyl]-6,8-dihydro-5H-imidazo[1,5-a]pyrazine-1-carboxamide]", "EC50": "< 100"}, {"smiles": "COc1ccc(-n2c(C(=O)NCc3cccc(F)c3)c3n(c2=O)CCN(C(=O)c2ccc(Br)c(Cl)c2)C3)cc1", "note": "[Example 125, 7-(4-bromo-3-chloro-benzoyl)-N-[(3-fluorophenyl)methyl]-2-(4-methoxyphenyl)-3-oxo-6,8-dihydro-5H-imidazo[1,5-a]pyrazine-1-carboxamide]", "EC50": "100 to 500"}, {"smiles": "Cc1ccc(-n2c(C(=O)NCc3ccccc3)c3n(c2=O)CCN(C(=O)c2ccc(Br)c(Cl)c2)C3)cc1", "note": "[Example 123, N-benzyl-7-(4-bromo-3-chloro-benzoyl)-3-oxo-2-(p-tolyl)-6,8-dihydro-5H-imidazo[1,5-a]pyrazine-1-carboxamide]", "EC50": "100 to 500"}, {"smiles": "C[C@@H](NC(=O)c1c2n(c(=O)n1-c1ccc(OCC(F)(F)F)cc1)CCN(C(=O)c1ccc(Br)c(Cl)c1)C2)c1ccc(OC(C)(C)C(N)=O)cc1F", "note": "(stereo in doubt) [Example 337, 7-(4-bromo-3-chloro-benzoyl)-3-oxo-N-[rac-(1R)-1-[4-(2-amino-1,1-dimethyl-2-oxo-ethoxy)-2-fluoro-phenyl]ethyl]-2-[4-(2,2,2-trifluoroethoxy)phenyl]-6,8-dihydro-5H-imidazo[1,5-a]pyrazine-1-carboxamide]", "EC50": "100 to 500"}, {"smiles": "Cn1cnc2c(CNC(=O)c3c4n(c(=O)n3-c3ccc(OCC(F)(F)F)cc3)CCN(C(=O)c3ccc(Br)c(Cl)c3)C4)cccc21", "note": "[Example 400, 7-(4-bromo-3-chloro-benzoyl)-N-[(1-methylbenzimidazol-4-yl)methyl]-3-oxo-2-[4-(2,2,2-trifluoroethoxy)phenyl]-6,8-dihydro-5H-imidazo[1,5-a]pyrazine-1-carboxamide]", "EC50": "100 to 500"}, {"smiles": "COc1ccc(-n2c(C(=O)NCc3ccc(OC)cc3Cl)c3n(c2=O)CCN(C(=O)c2ccc(Cl)c(Cl)c2)C3)cc1", "note": "[Example 85, N-[(2-chloro-4-methoxy-phenyl)methyl]-7-(3,4-dichlorobenzoyl)-2-(4-methoxyphenyl)-3-oxo-6,8-dihydro-5H-imidazo[1,5-a]pyrazine-1-carboxamide]", "EC50": "500 to 5000"}, {"smiles": "COc1ccc(-n2c(C(=O)NCc3ccc(OC)cc3C3CC3)c3n(c2=O)CCN(C(=O)c2ccc(Br)c(Cl)c2)C3)cc1", "note": "[Example 210, 7-(4-bromo-3-chloro-benozyl)-N-[(2-cyclopropyl-4-methoxy-phenyl)methyl]-2-(4-methoxyphenyl)-3-oxo-6,8-dihydro-5H-imidazo[1,5-a]pyrazine-1-carboxamide]", "EC50": "100 to 500"}, {"smiles": "O=C(NCc1c(F)cccc1-n1cccn1)c1c2n(c(=O)n1-c1ccc(OC3CC3)cc1)CCN(C(=O)c1ccc(Br)c(Cl)c1)C2", "note": "[Example 435, 7-(4-bromo-3-chloro-benzoyl)-2-[4-(cyclopropoxy)phenyl]-N-[(2-fluoro-6-pyrazol-1-yl-phenyl)methyl]-3-oxo-6,8-dihydro-5H-imidazo[1,5-a]pyrazine-1-carboxamide]", "EC50": "< 100"}, {"smiles": "COc1ccc(-n2c(C(=O)NCc3cnccn3)c3n(c2=O)CCN(C(=O)c2ccc(Br)c(Cl)c2)C3)cc1", "note": "[Example 171, 7-(4-bromo-3-chloro-benzoyl)-2-(4-methoxyphenyl)-3-oxo-N-(pyrazin-2-ylmethyl)-6,8-dihydro-5H-imidazo[1,5-a]pyrazine-1-carboxamide]", "EC50": "> 5000"}, {"smiles": "COc1ccc(-n2c(C(=O)N[C@@H](C)c3ccccc3)c3n(c2=O)CCN(C(=O)c2ccc(Cl)c(Cl)c2)C3)cc1", "note": "(stereo in doubt) [Example 70, 7-(3,4-dichlorobenzoyl)-2-(4-methoxyphenyl)-3-oxo-N-[rac-(1S)-1-phenylethyl]-6,8-dihydro-5H-imidazo[1,5-a]pyrazine-1-carboxamide]", "EC50": "500 to 5000"}, {"smiles": "O=C(NCc1ccccc1)c1c2n(c(=O)n1-c1ccc3nonc3c1)CCN(C(=O)c1ccc(Br)c(Cl)c1)C2", "note": "[Example 389, 2-(2,1,3-benzoxadiazol-5-yl)-N-benzyl-7-(4-bromo-3-chloro-benzoyl)-3-oxo-6,8-dihydro-5H-imidazo[1,5-a]pyrazine-1-carboxamide]", "EC50": "500 to 5000"}, {"smiles": "O=C(NCc1ccc(OC2COC2)cc1F)c1c2n(c(=O)n1-c1ccc(OCC(F)(F)F)cc1)CCN(C(=O)c1ccc(Br)c(Cl)c1)C2", "note": "[Example 329, 7-(4-bromo-3-chloro-benzoyl)-N-[[2-fluoro-4-(oxetan-3-yloxy)phenyl]methyl]-3-oxo-2-[4-(2,2,2-trifluoroethoxy)phenyl]-6,8-dihydro-5H-imidazo[1,5-a]pyrazine-1-carboxamide]", "EC50": "100 to 500"}, {"smiles": "COc1ccc(-n2c(C(=O)NCc3ccc4c(c3)OCCO4)c3n(c2=O)CCN(C(=O)c2ccc(Cl)c(Cl)c2)C3)cc1", "note": "[Example 91, 7-(3,4-dichlorobenzoyl)-N-(2,3-dihydro-1,4-benzodioxin-6-ylmethyl)-2-(4-methoxyphenyl)-3-oxo-6,8-dihydro-5H-imidazo[1,5-a]pyrazine-1-carboxamide]", "EC50": "500 to 5000"}, {"smiles": "CC[C@@H](NC(=O)c1c2n(c(=O)n1-c1ccc(OC)cc1)CCN(C(=O)c1ccc(Br)c(Cl)c1)C2)c1ccccc1", "note": "(stereo in doubt) [Example 150, 7-(4-bromo-3-chloro-benzoyl)-2-(4-methoxyphenyl)-3-oxo-N-[rac-(1R)-1-phenylpropyl]-6,8-dihydro-5H-imidazo[1,5-a]pyrazine-1-carboxamide]", "EC50": "100 to 500"}, {"smiles": "COc1ccc(CNC(=O)c2c3n(c(=O)n2-c2ccc(OCC(F)(F)F)cc2)CCN(C(=O)c2ccc(Br)c(Cl)c2)C3)c(OC)c1", "note": "[Example 229, 7-(4-bromo-3-chloro-benozyl)-N-[(2,4-dimethoxyphenyl)methyl]-3-oxo-2-[4-(2,2,2-trifluoroethoxy)phenyl]-6,8-dihydro-5H-imidazo[1,5-a]pyrazine-1-carboxamide]", "EC50": "< 100"}, {"smiles": "COc1ccc(-n2c(C(=O)NCc3ccc(C(F)(F)F)cc3)c3n(c2=O)CCN(C(=O)c2ccc(Br)c(Cl)c2)C3)cc1", "note": "[Example 140, 7-(4-bromo-3-chloro-benzoyl)-2-(4-methoxyphenyl)-3-oxo-N-[[4-(trifluoromethyl)phenyl]methyl]-6,8-dihydro-5H-imidazo[1,5-a]pyrazine-1-carboxamide]", "EC50": "500 to 5000"}, {"smiles": "COCC1(N(C)C(=O)c2c3n(c(=O)n2-c2ccc(OC)cc2)CCN(C(=O)c2ccc(Cl)c(Cl)c2)C3)CC1", "note": "[Example 111, 7-(3,4-dichlorobenzoyl)-N-[1-(methoxymethyl)cyclopropyl]-2-(4-methoxyphenyl)-N-methyl-3-oxo-6,8-dihydro-5H-imidazo[1,5-a]pyrazine-1-carboxamide]", "EC50": "> 5000"}, {"smiles": "COc1ccc(-n2c(C(=O)N[C@@H](c3ccccc3)C(F)F)c3n(c2=O)CCN(C(=O)c2ccc(Br)c(Cl)c2)C3)cc1", "note": "(stereo in doubt) [Example 252, 7-(4-bromo-3-chloro-benzoyl)-2-(4-methoxyphenyl)-3-oxo-N-[rac-(1S)-2,2-difluoro-1-phenyl-ethyl]-6,8-dihydro-5H-imidazo[1,5-a]pyrazine-1-carboxamide]", "EC50": "100 to 500"}, {"smiles": "C[C@@H]1CN(Cc2ccccc2)C(=O)c2c3n(c(=O)n2C1)CCN(C(=O)c1ccc(Br)c(Cl)c1)C3", "note": "(stereo in doubt) [Example 97, rac-(11R)-13-benzyl-4-(4-bromo-3-chloro-benzoyl)-11-methyl-4,7,9,13-tetrazatricyclo[7.5.0.0^2,7]tetradec-1-ene-8.14-dione]", "EC50": "500 to 5000"}, {"smiles": "C[C@H](NC(=O)c1c2n(c(=O)n1-c1ccc(OC3CC3)cc1)CCN(C(=O)c1ccc(Br)c(Cl)c1)C2)c1ccc(OC(F)(F)F)cc1F", "note": "(stereo in doubt) [Example 291, 7-(4-bromo-3-chloro-benzoyl)-2-[4-(cyclopropoxy)phenyl]-3-oxo-N-[rac-(1S)-1-[2-fluoro-4-(trifluoromethoxy)phenyl]ethyl]-6,8-dihydro-5H-imidazo[1,5-a]pyrazine-1-carboxamide]", "EC50": "500 to 5000"}, {"smiles": "N#Cc1ccc(CNC(=O)c2c3n(c(=O)n2-c2ccc(OC4CC4)cc2)CCN(C(=O)c2ccc(Br)c(Cl)c2)C3)c(F)c1", "note": "[Example 307]", "EC50": "500 to 5000"}, {"smiles": "O=C(NCc1ccccc1)c1c2n(c(=O)n1-c1cccc(F)c1)CCN(C(=O)c1ccc(Br)c(Cl)c1)C2", "note": "[Example 23, N-benzyl-7-(4-bromo-3-chloro-benzoyl)-2-(3-fluorophenyl)-3-oxo-6,8-dihydro-5H-imidazo[1,5-a]pyrazine-1-carboxamide]", "EC50": "500 to 5000"}, {"smiles": "COc1cccc(C)c1CNC(=O)c1c2n(c(=O)n1-c1ccc(OCC(F)(F)F)cc1)CCN(C(=O)c1ccc(Br)c(Cl)c1)C2", "note": "[Example 259, 7-(4-bromo-3-chloro-benzoyl)-N-[(2-methoxy-6-methyl-phenyl)methyl]-3-oxo-2-[4-(2,2,2-trifluoroethoxy)phenyl]-6,8-dihydro-5H-imidazo[1,5-a]pyrazine-1-carboxamide]", "EC50": "100 to 500"}]}]}
